| SMILES | melting point [°C] |
| --- | --- |
| Cc1ncccc1-c1cccc(C2=Nc3ccc(F)cc3NC(=O)C2)c1 [Example 18, 8-Fluoro-4-[3-(2-methyl-pyridin-3-yl)-phenyl]-1,3-dihydro-benzo[b][1,4]diazepin-2-one] | 219 to 220 |
| CCOc1cc2c(cc1C(F)(F)F)NC(=O)CC(c1cccc(-c3cc(C)ncc3CC)c1)=N2 [Example 152, 4-[3-(5-Ethyl-2-methyl-pyridin-4-yl)-phenyl]-7-ethoxy-8-trifluoromethyl-1,3-dihydro-benzo[b][1,4]diazepin-2-one] | 191 |
| O=C1CC(c2cccc(-c3cnccn3)c2)=Nc2cc(C(F)(F)F)c(Cl)cc2N1 [Example 110, 8-Chloro-4-(3-pyrazin-2-yl-phenyl)-7-trifluoromethyl-1,3-dihydro-benzo[b][1,4]diazepin-2-one] | 214 |
| Cc1cc(-c2cccc(C3=Nc4ccc(Cl)cc4NC(=O)C3)c2)cc(C)n1 [Example 118, 8-Chloro-4-[3-(2,6-dimethyl-pyridin-4-yl)-phenyl]-1,3-dihydro-benzo[b][1,4]diazepin-2-one] | 236 |
| O=C1CC(c2cccc(-c3cccnc3)c2)=Nc2cc(C(F)(F)F)c(Cl)cc2N1 [Example 113, 8-Chloro-4-(3-pyridin-3-yl-phenyl)-7-trifluoromethyl-1,3-dihydro-benzo[b][1,4]diazepin-2-one] | 208 |
| O=C1CC(c2cccc(-c3ccncn3)c2)=Nc2cc(Cl)c(Cl)cc2N1 [Example 300, 7,8-Dichloro-4-(3-pyrimidin-4-yl-phenyl)-1,3-dihydro-benzo[b][1,4]diazepin-2-one] | 234 to 237 |
| O=C1CC(c2cccc(-c3cnccn3)c2)=Nc2ccc(C(F)(F)F)cc2N1 [Example 89, 4-(3-Pyrazin-2-yl-phenyl)-8-trifluoromethyl-1,3-dihydro-benzo[b][1,4]diazepin-2-one] | 223 |
| O=C1CC(c2cccc(-c3ccnc(CO)c3)c2)=Nc2cc(Cl)c(Cl)cc2N1 [Example 285, 7,8-Dichloro-4-[3-(2-hydroxymethyl-pyridin-4-yl)-phenyl]-1,3-dihydro-benzo[b][1,4]diazepin-2-one] | 224 |
| O=C1CC(c2cccc(-c3ccncc3)c2)=Nc2cc(C(F)(F)F)c(Cl)cc2N1 [Example 100, 8-Chloro-4-(3-pyridin-4-yl-phenyl)-7-trifluoromethyl-1,3-dihydro-benzo[b][1,4]diazepin-2-one] | 200 |
| Cc1cc2c(cc1Cl)NC(=O)CC(c1cccc(-c3ccnc(C(C)C)c3)c1)=N2 [Example 270, 8-Chloro-4-[3-(2-isopropyl-pyridin-4-yl)-phenyl]-7-methyl-1,3-dihydro-benzo[b][1,4]diazepin-2-one] | 196 |
| CN(C)c1cc2c(cc1C(F)(F)F)NC(=O)CC(c1cccc(-c3ccccn3)c1)=N2 [Example 6, 7-Dimethylamino-4-(3-pyridin-2-yl-phenyl)-8-trifluoromethyl-1,3-dihydro-benzo[b][1,4]diazepin-2-one] | 201 |
| Cc1cc(C)c(-c2cccc(C3=Nc4cc(C)c(C(F)(F)F)cc4NC(=O)C3)c2)cn1 [Example 245, 4-[3-(4,6-Dimethyl-pyridin-3-yl)-phenyl]-7-methyl-8-trifluoromethyl-1,3-dihydro-benzo[b][1,4]diazepin-2-one] | 218 to 219 |

The remaining lines, values ahead:

| melting point [°C] | SMILES |
| --- | --- |
| 155 | CCCN(C)Cc1cc(-c2cccc(C3=Nc4cc(OCC(F)(F)F)c(C(F)(F)F)cc4NC(=O)C3)c2)ccn1 [Example 382, 4-(3-{2-[(Methyl-propyl-amino)-methyl]-pyridin-4-yl}-phenyl)-7-(2,2,2-trifluoro-ethoxy)-8-trifluoromethyl-1,3-dihydro-benzo[b][1,4]diazepin-2-one] |
| 210 | O=C1CC(c2cccc(-c3cccnc3)c2)=Nc2cc(C(F)(F)F)c(C(F)(F)F)cc2N1 [Example 416, 4-(3-Pyridin-3-yl-phenyl)-7,8-bis-trifluoromethyl-1,3-dihydro-benzo[b][1,4]diazepin-2-one] |
| 242 to 243 | Cc1cc(-c2cccc(C3=Nc4ccc(-n5cccc5)cc4NC(=O)C3)c2)ncn1 [Example 314, 4-[3-(6-Methyl-pyrimidin-4-yl)-phenyl]-8-pyrrol-1-yl-1,3-dihydro-benzo[b][1,4]diazepin-2-one] |
| 241 to 243 | CNc1nc(C)cc(-c2cccc(C3=Nc4cc(C)c(C(F)(F)F)cc4NC(=O)C3)c2)n1 [Example 318, 7-Methyl-4-[3-(6-methyl-2-methylamino-pyrimidin-4-yl)-phenyl]-8-trifluoromethyl-1,3-dihydro-benzo[b][1,4]diazepin-2-one] |
| 200 | Cc1cc(-c2cccc(C3=Nc4cc(C)c(C(F)(F)F)cc4NC(=O)C3)c2)cc(CO)n1 [Example 402, 4-[3-(2-Hydroxymethyl-6-methyl-pyridin-4-yl)-phenyl]-7-methyl-8-trifluoromethyl-1,3-dihydro-benzo[b][1,4]diazepin-2-one] |
| 248 to 250 | Cc1cc(-c2cccc(C3=Nc4cc(C)c(Cl)cc4NC(=O)C3)c2)nc(N(C)C)n1 [Example 321, 8-Chloro-4-[3-(2-dimethylamino-6-methyl-pyrimidin-4-yl)-phenyl]-7-methyl-1,3-dihydro-benzo[b][1,4]diazepin-2-one] |
| 248 to 252 | Cc1cc(-c2cccc(C3=Nc4cc(C)c(C(F)(F)F)cc4NC(=O)C3)c2)nc(N(C)C)n1 [Example 320, 4-[3-(2-Dimethylamino-6-methyl-pyrimidin-4-yl)-phenyl]-7-methyl-8-trifluoromethyl-1,3-dihydro-benzo[b][1,4]diazepin-2-one] |
| 190 | CC(C)CN(C)Cc1cc(-c2cccc(C3=Nc4cc(N(C)CC(C)C)c(C(F)(F)F)cc4NC(=O)C3)c2)ccn1 [Example 395, 7-(Isobutyl-methyl-amino)-4-(3-{2-[(isobutyl-methyl-amino)-methyl]-pyridin-4-yl}-phenyl)-8-trifluoromethyl-1,3-dihydro-benzo[b][1,4]diazepin-2-one] |
| 141 | COCc1cc(-c2cccc(C3=Nc4cc(N(C)CC(C)C)c(C(F)(F)F)cc4NC(=O)C3)c2)ccn1 [Example 398, 7-(Isobutyl-methyl-amino)-4-[3-(2-methoxymethyl-pyridin-4-yl)-phenyl]-8-trifluoromethyl-1,3-dihydro-benzo[b][1,4]diazepin-2-one] |
| 165 to 167 | O=C1CC(c2cccc(-c3ccnc(C4CCCC4)c3)c2)=Nc2ccc(C(F)(F)F)cc2N1 [Example 352, 4-[3-(2-Cyclopentyl-pyridin-4-yl)-phenyl]-8-trifluoromethyl-1,3-dihydro-benzo[b][1,4]diazepin-2-one] |
| 171 | Cc1cc2c(cc1Cl)NC(=O)CC(c1cccc(-c3ccnc(CNC4CC4)c3)c1)=N2 [Example 378, 8-Chloro-4-[3-(2-cyclopropylaminomethyl-pyridin-4-yl)-phenyl]-7-methyl-1,3-dihydro-benzo[b][1,4]diazepin-2-one] |
| 228 | Cc1cc(-c2cccc(C3=Nc4ccc(C(F)(F)F)cc4NC(=O)C3)c2)cc(CO)n1 [Example 407, 4-[3-(2-Hydroxymethyl-6-methyl-pyridin-4-yl)-phenyl]-8-trifluoromethyl-1,3-dihydro-benzo[b][1,4]diazepin-2-one] |

Reference: patent publication US6949542B2, “Dihydro-benzo[b][1,4]diazepin-2-one derivatives” (Hoffman-La Roche Inc., priority 2002, dated 2005)
